Measured values as given in PubChem BioAssay AID2060497 (Molecular Pharmacology Branch, DTP, NCI, 2025).

System: 317291-083-R-J1-PDC complex spheroids, viability
Assay: Anticancer human tumor 317291-083-R-J1-PDC patient-derived soft tissue sarcoma cell line growth inhibition [GQUAD]
Conditions: for IC50: curve of first compound; for viability, T/C: stronger effect = lower value
Summary of the method: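 Multi-cell-type spheroids of tumor cells with HUVEC and mesenchymal stem cells, treated with drug combinations. Concentrations descend in half-log steps from near clinical Cmax, or from 10 microM where Cmax is unknown; viability read-out.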

[1] = second compound 0.0316 µM, first compound 0.0316 µM
[2] = second compound 0.0316 µM, first compound 0.1 µM
[3] = second compound 0.0316 µM, first compound 0.316 µM
[4] = second compound 0.0316 µM, first compound 1 µM
[5] = second compound 0.0316 µM, first compound 3.16 µM
[6] = second compound 0.0316 µM, first compound 10 µM
[7] = second compound 0.1 µM, first compound 0.0316 µM
[8] = second compound 0.1 µM, first compound 0.1 µM
[9] = second compound 0.1 µM, first compound 0.316 µM
[10] = second compound 0.1 µM, first compound 1 µM
[11] = second compound 0.1 µM, first compound 3.16 µM
[12] = second compound 0.1 µM, first compound 10 µM
[13] = second compound 0.316 µM, first compound 0.0316 µM
[14] = second compound 0.316 µM, first compound 0.1 µM
[15] = second compound 0.316 µM, first compound 0.316 µM
[16] = second compound 0.316 µM, first compound 1 µM
[17] = second compound 0.316 µM, first compound 3.16 µM
[18] = second compound 0.316 µM, first compound 10 µM
[19] = second compound 1 µM, first compound 0.0316 µM
[20] = second compound 1 µM, first compound 0.1 µM
[21] = second compound 1 µM, first compound 0.316 µM
[22] = second compound 1 µM, first compound 1 µM
[23] = second compound 1 µM, first compound 3.16 µM
[24] = second compound 1 µM, first compound 10 µM
[25] = second compound 3.16 µM, first compound 0.0316 µM
[26] = second compound 3.16 µM, first compound 0.1 µM
[27] = second compound 3.16 µM, first compound 0.316 µM
[28] = second compound 3.16 µM, first compound 1 µM
[29] = second compound 3.16 µM, first compound 3.16 µM
[30] = second compound 3.16 µM, first compound 10 µM
[31] = second compound 10 µM, first compound 0.0316 µM
[32] = second compound 10 µM, first compound 0.1 µM
[33] = second compound 10 µM, first compound 0.316 µM
[34] = second compound 10 µM, first compound 1 µM
[35] = second compound 10 µM, first compound 3.16 µM
[36] = second compound 10 µM, first compound 10 µM
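Also: spheroids exposed to compounds for one week before readout.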
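For viability, T/C in this document: percent viability relative to DMSO vehicle wells taken as 100%.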

COc1ncnc(C2CC2)c1-c1ncc2cnn(Cc3ccc(-c4nc(C(F)(F)F)cn4C(C)C)cc3)c2n1 + CN(C)c1ccc(Nc2c3ccc(NC(=O)CCN4CCCC4)cc3nc3cc(NC(=O)CCN4CCCC4)ccc23)cc1
IC50 (second compound 0.0316 µM): > 10 µM | IC50 (second compound 0.1 µM): > 10 µM | IC50 (second compound 0.316 µM): < 0.0316 µM | IC50 (second compound 1 µM): < 0.0316 µM | IC50 (second compound 3.16 µM): < 0.0316 µM | IC50 (second compound 10 µM): < 0.0316 µM | viability, T/C [1]: 88.5% | viability, T/C [2]: 77.1% | viability, T/C [3]: 69% | viability, T/C [4]: 70.3% | viability, T/C [5]: 64.3% | viability, T/C [6]: 59.9% | viability, T/C [7]: 79.9% | viability, T/C [8]: 61.4% | viability, T/C [9]: 65.9% | viability, T/C [10]: 61.4% | viability, T/C [11]: 51.6% | viability, T/C [12]: 60.2% | viability, T/C [13]: 48.2% | viability, T/C [14]: 44.2% | viability, T/C [15]: 41.9% | viability, T/C [16]: 37.4% | viability, T/C [17]: 37.4% | viability, T/C [18]: 36.1% | viability, T/C [19]: 32.4% | viability, T/C [20]: 50.2% | viability, T/C [21]: 35.7% | viability, T/C [22]: 16.5% | viability, T/C [23]: 26.6% | viability, T/C [24]: 17.3% | viability, T/C [25]: 33.4% | viability, T/C [26]: 2.38% | viability, T/C [27]: 3.48% | viability, T/C [28]: 1.13% | viability, T/C [29]: 2.41% | viability, T/C [30]: 1.37% | viability, T/C [31]: 0.61% | viability, T/C [32]: 0.24% | viability, T/C [33]: 0.23% | viability, T/C [34]: 0.23% | viability, T/C [35]: 0.28% | viability, T/C [36]: 0.22%

C=CC(=O)N1CCN(c2nc(=O)n(-c3c(C)ccnc3C(C)C)c3nc(-c4c(O)cccc4F)c(F)cc23)C(C)C1 (stereo not drawn) + Cc1[nH]c2ccc(F)cc2c1-c1nc2c3cccnc3c3ncccc3c2[nH]1
IC50 (second compound 0.0316 µM): > 10 µM | IC50 (second compound 0.1 µM): > 10 µM | IC50 (second compound 0.316 µM): > 10 µM | IC50 (second compound 1 µM): > 10 µM | IC50 (second compound 3.16 µM): > 10 µM | IC50 (second compound 10 µM): 5.95 µM | viability, T/C [1]: 112% | viability, T/C [2]: 99.2% | viability, T/C [3]: 113% | viability, T/C [4]: 89.5% | viability, T/C [5]: 102% | viability, T/C [6]: 60.8% | viability, T/C [7]: 110% | viability, T/C [8]: 97.4% | viability, T/C [9]: 104% | viability, T/C [10]: 116% | viability, T/C [11]: 93.4% | viability, T/C [12]: 71.8% | viability, T/C [13]: 101% | viability, T/C [14]: 113% | viability, T/C [15]: 105% | viability, T/C [16]: 99.4% | viability, T/C [17]: 104% | viability, T/C [18]: 85.3% | viability, T/C [19]: 109% | viability, T/C [20]: 102% | viability, T/C [21]: 110% | viability, T/C [22]: 104% | viability, T/C [23]: 88.9% | viability, T/C [24]: 73.2% | viability, T/C [25]: 93.3% | viability, T/C [26]: 91.4% | viability, T/C [27]: 96% | viability, T/C [28]: 93.1% | viability, T/C [29]: 74.7% | viability, T/C [30]: 51.5% | viability, T/C [31]: 58.4% | viability, T/C [32]: 69.9% | viability, T/C [33]: 78.5% | viability, T/C [34]: 74.3% | viability, T/C [35]: 74.9% | viability, T/C [36]: 32.7%

CC(C)n1c(=O)n(C)c2cnc3cc(F)c(-c4ccc(OCCCN5CCCCC5)nc4)cc3c21 + Cc1[nH]c2ccc(F)cc2c1-c1nc2c3cccnc3c3ncccc3c2[nH]1
IC50 (second compound 0.0316 µM): > 10 µM | IC50 (second compound 0.1 µM): 8.61 µM | IC50 (second compound 0.316 µM): 8.62 µM | IC50 (second compound 1 µM): > 10 µM | IC50 (second compound 3.16 µM): 7.88 µM | IC50 (second compound 10 µM): > 10 µM | viability, T/C [1]: 104% | viability, T/C [2]: 111% | viability, T/C [3]: 92.5% | viability, T/C [4]: 97.1% | viability, T/C [5]: 86.2% | viability, T/C [6]: 50.5% | viability, T/C [7]: 104% | viability, T/C [8]: 101% | viability, T/C [9]: 96.3% | viability, T/C [10]: 96.7% | viability, T/C [11]: 92.9% | viability, T/C [12]: 43.3% | viability, T/C [13]: 88.6% | viability, T/C [14]: 103% | viability, T/C [15]: 105% | viability, T/C [16]: 85% | viability, T/C [17]: 106% | viability, T/C [18]: 42.9% | viability, T/C [19]: 114% | viability, T/C [20]: 108% | viability, T/C [21]: 93.7% | viability, T/C [22]: 96.3% | viability, T/C [23]: 92.7% | viability, T/C [24]: 53.5% | viability, T/C [25]: 80.7% | viability, T/C [26]: 103% | viability, T/C [27]: 97.6% | viability, T/C [28]: 72.4% | viability, T/C [29]: 93.8% | viability, T/C [30]: 39.7% | viability, T/C [31]: 99.2% | viability, T/C [32]: 107% | viability, T/C [33]: 83.5% | viability, T/C [34]: 92.5% | viability, T/C [35]: 85.2% | viability, T/C [36]: 50%

CC1COCCN1c1cc(C2(O)CC3CCC(C2)O3)c2cnn(-c3ccn[nH]3)c2n1 (stereo not drawn) + Cc1[nH]c2ccc(F)cc2c1-c1nc2c3cccnc3c3ncccc3c2[nH]1
IC50 (second compound 0.0316 µM): 0.0714 µM | IC50 (second compound 0.1 µM): 0.0547 µM | IC50 (second compound 0.316 µM): 0.0392 µM | IC50 (second compound 1 µM): 0.0517 µM | IC50 (second compound 3.16 µM): 0.0502 µM | IC50 (second compound 10 µM): 0.0337 µM | viability, T/C [1]: 84.1% | viability, T/C [2]: 34.8% | viability, T/C [3]: 16% | viability, T/C [4]: 22.8% | viability, T/C [5]: 13.2% | viability, T/C [6]: 3.15% | viability, T/C [7]: 68.5% | viability, T/C [8]: 29.5% | viability, T/C [9]: 13.9% | viability, T/C [10]: 12.8% | viability, T/C [11]: 10.4% | viability, T/C [12]: 3.93% | viability, T/C [13]: 55.7% | viability, T/C [14]: 27.9% | viability, T/C [15]: 14.8% | viability, T/C [16]: 20.1% | viability, T/C [17]: 12.1% | viability, T/C [18]: 3.04% | viability, T/C [19]: 66.4% | viability, T/C [20]: 26.4% | viability, T/C [21]: 18.6% | viability, T/C [22]: 10.8% | viability, T/C [23]: 11.3% | viability, T/C [24]: 2.71% | viability, T/C [25]: 69.7% | viability, T/C [26]: 20.4% | viability, T/C [27]: 10.7% | viability, T/C [28]: 14.3% | viability, T/C [29]: 7.98% | viability, T/C [30]: 2.88% | viability, T/C [31]: 52.3% | viability, T/C [32]: 18.9% | viability, T/C [33]: 14% | viability, T/C [34]: 13.8% | viability, T/C [35]: 10.7% | viability, T/C [36]: 3.52%
